The text below walks through data of publication PMC11218446, “Antibacterial efficacy and membrane mechanism of action of the Serratia-derived non-ionic lipopeptide, serrawettin W2-FL10” (Microbiology Spectrum, 2024).

One data set deals with L. monocytogenes B73. The note with it: cited from earlier work. An excerpt: (§1) Key parameters contributing to the antimicrobial activity of lipopeptides include hydrophobicity and net charge ([5], [24]). Serrawettin W2-FL10 is a relatively small and moderately amphipathic lipopeptide with a neutral charge.
Data set [1] concerns Chinese hamster ovarian (CHO) cell line. Briefly: Mammalian cell cytotoxicity, MTT assay. The note with it: CHO cells, MTT, 48 h; reference drug. How it is done: To determine the biocompatibility of W2-FL10 as a potential therapeutic agent, the in vitro cytotoxicity of W2-FL10 against the CHO cell line ([50]) was determined over 48 h by the Drug Discovery and Development Centre at the University of Cape Town, as previously described by Mosmann ([51]). Briefly, W2-FL10 was prepared to a 10 mM stock solution in 100% DMSO and dilutions were prepared in growth media. The CHO cell line density of 10^5 cells/well in 96-well plates and allowed to attach for 24 h. Thereafter, the compound was added to the 96-well plates at various concentrations from 50 µM down to 16 nM and incubated for a further 48 h. At 44 h, MTT was added to the wells, and the plates were read 4 h later at 540 nm on a spectrophotometer. […] Finally, cell inhibition was plotted against concentration and the 50% lethal concentration (LC50) parameter and a minimum lethal concentration (MLC90) were obtained as described for the dose responses against bacterial targets above (equation 1).
On the technique in general: Tetrazolium assays rely on reduction of a dye to a coloured formazan, in cell work by metabolically active cells.

In the next data set the test system is Escherichia coli. The note with it: cited from earlier work.
Excerpt: as §1

In data set [2] the test system is methicillin-resistant S. aureus (MRSA). The note with it: cited from earlier work. The source says: The antimicrobial activity of the serrawettin W2-FI10 analog (i.e., C10H18O2-Leu-Ser-Thr-Phe-Ile), has been extensively investigated.

Broadly, the MIC is the lowest concentration found to suppress growth. As to tyrocidine C, in the data set on L. monocytogenes B73, the ICF was 1.9 and the MIC is 13 µM. Consider `CC[C@H]1CN2CCc3cc(OC)c(OC)cc3[C@@H]2C[C@@H]1C[C@H]1NCCc2cc(OC)c(OC)cc21` [emetine, reference compound], for which the LC50 entry in data set [1] is on record as “approximately 40 nM”. gramicidin S: the ICF with Escherichia coli is 5.7.

For PGla, in the data set on Escherichia coli, the ICF was 2.5. For the compound “C10H18O2-Leu-Ser-Thr-Phe-Ile (lariat or depsi) [W2-FI10, serrawettin W2-FI10, serrawettin W2 analog, C10H18O2-Leu-Ser-Thr-Phe-Ile]”, the “concentration with inhibitory activity” value in data set [2] is given as 4 µg/mL.
